In patent publication US20240400591A1 (Jacobio Pharmaceuticals Co., Ltd., priority 2021, published 2024):
Where two headings read alike, the source gives them in different places.

How the values were obtained:
[1] = target: T1, His-p53 Y220C (94-294) protein (Homo sapiens, UniProt P04637, Y220C); assay: In vitro DNA binding assay (HTRF); type: biochemical; conditions: % activation normalized to 2 μM Ref-1a high control
T1 construct: His-p53 Y220C (94-294) protein

NUGC3 (P53 Y220C) = assay: Cell viability assay (CellTiter-Glo, 6 days), NUGC3; type: cell-based
Summary of the method: (§1)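 Cells seeded overnight at 37 °C, then exposed to compounds in medium for 6 days. Viability read by CellTiter-Glo luminescence, normalized to DMSO cell wells (high) and medium-only wells (low); IC50 taken as concentration giving 50% viability from 4-parameter logistic fit.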

NUGC4 (P53 WT) = assay: Cell viability assay (CellTiter-Glo, 6 days), NUGC4; type: cell-based
Summary of the method: as §1

[2] = tested on: NUGC-3_P53_Luc single clonal cell line (p53 Y220C); assay: Reporter gene assay (p53 RE luciferase); type: cell-based
Summary of the method: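 NUGC-3 cells stably carrying a p53 RE-driven luc2P reporter, washed free of phenol red, exposed to compound for 6 h at 37 °C; luminescence read. Activity normalised between DMSO (low) and Ref-1a 10 μM (high) controls; EC50 from 4-parameter logistic fit or Excel as concentration giving 50% activity.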

[3] = Homo sapiens, NUGC-3, 144 h, cell viability, 6 days, CellTiter-Glo, read-out: NUGC3 (P53 Y220C) IC50
[4] = Homo sapiens, NUGC-4, 144 h, cell viability, 6 days, CellTiter-Glo, read-out: NUGC4 (P53 WT) IC50
[5] = Homo sapiens, NUGC-3, luciferase reporter, 6 hours, normalized to Ref-1a (10 μM) high control, read-out: p53(Y220C)_NUGC-3 EC50
[6] = cell viability, 6 days, CellTiter-Glo, read-out: NUGC3 (P53 Y220C) IC50
[7] = cell viability, 6 days, CellTiter-Glo, read-out: NUGC4 (P53 WT) IC50
[8] = luciferase reporter, 6 hours, normalized to Ref-1a (10 μM) high control, read-out: p53(Y220C)_NUGC-3 EC50
[9] = Homo sapiens, NUGC-3, 6 h, luciferase reporter, 6 hours, normalized to Ref-1a (10 μM) high control, read-out: p53(Y220C)_NUGC-3 EC50

## CN1CC[C@@H](Nc2cccc3c(CC(F)(F)F)c(C#CCNc4ccc(P(C)(C)=O)cc4C(=O)NC4CCOCC4)sc23)[C@@H](F)C1 [Example 216, 5-(dimethylphosphoryl)-2-((3-(7-(((3S,4R)-3-fluoro-1-methylpiperidin-4-yl)amino)-3-(2,2,2-trifluoroethyl)benzo[b]thiophen-2-yl)prop-2-yn-1-yl)amino)-N-(tetrahydro-2H-pyran-4-yl)benzamide]
[1]
  EC50: 48 nM
NUGC3 (P53 Y220C); [3]
  IC50: 0.27 µM
NUGC4 (P53 WT); [4]
  IC50: > 50 µM
[2]; [5]
  EC50: 0.12 µM

## COc1cc(C(N)=O)ncc1NCC#Cc1sc2c(NC3CCN(C)CC3F)cccc2c1CC(F)(F)F (stereo not shown) [Example 61, 5-((3-(3-(2,2,2-trifluoroethyl)-7-(((Z)-3-fluoro-1-methylpiperidin-4-yl)amino)benzo[b]thiophen-2-yl)prop-2-yn-1-yl)amino)-4-methoxypicolinamide]
[1]
  EC50: 102 nM
NUGC3 (P53 Y220C); [6]
  IC50: 4.53 µM
NUGC4 (P53 WT); [7]
  IC50: 13 µM
[2]; [8]
  EC50: 0.53 µM

## COc1cc(P(C)(C)=O)ccc1NCC#Cc1sc2c(NC3[C@@H]4COC[C@H]3CN(C)C4)cccc2c1CC(F)(F)F (single isomer, unassigned) [Example 196]
[1]
  EC50: 67 nM
NUGC3 (P53 Y220C); [3]
  IC50: 6.71 µM
NUGC4 (P53 WT); [4]
  IC50: 18.6 µM
[2]; [9]
  EC50: 0.66 µM

## COc1cc(P(C)(C)=O)ccc1NCC#Cc1sc2c(N[C@@H]3CCN(C4CCN(C)CC4)C[C@@H]3F)cccc2c1CC(F)(F)F (racemic) [Example 72, (Z)-(4-((3-(7-((3-fluoro-1′-methyl-[1,4′-bipiperidin]-4-yl)amino)-3-(2,2,2-trifluoroethyl)benzo[b]thiophen-2-yl)prop-2-yn-1-yl)amino)-3-methoxyphenyl)dimethylphosphine oxide]
[1]
  EC50: 41 nM
NUGC3 (P53 Y220C); [3]
  IC50: 0.43 µM
NUGC4 (P53 WT); [4]
  IC50: 4.43 µM
[2]; [9]
  EC50: 0.21 µM

## COc1cc(P2(=O)CCCC2)ccc1NCC#Cc1sc2c(N[C@@H]3CCN(C)C[C@@H]3F)cccc2c1CC(F)(F)F [Example 117, 1-(4-((3-(7-(((3S,4R)-3-fluoro-1-methylpiperidin-4-yl)amino)-3-(2,2,2-trifluoroethyl)benzo[b]thiophen-2-yl)prop-2-yn-1-yl)amino)-3-methoxyphenyl)phospholane 1-oxide]
[1]
  EC50: 34 nM
NUGC3 (P53 Y220C); Homo sapiens, NUGC-3, 144 h, read-out: NUGC3 (P53 Y220C) IC50 (μM)
  IC50: 0.93 µM
NUGC4 (P53 WT); Homo sapiens, NUGC-4, 144 h, read-out: NUGC4 (P53 WT) IC50 (μM)
  IC50: 8.54 µM
[2]; Homo sapiens, NUGC-3, 6 h, read-out: p53(Y220C)_NUGC-3 EC50 (μM)
  EC50: 0.17 µM

## COc1cc(P(C)(C)=O)ccc1NCC#Cc1sc2c(N[C@@H]3CCN(C)C[C@H]3C)cccc2c1CC(F)(F)F [Example 128, (4-((3-(7-(((3R,4R)-1,3-dimethylpiperidin-4-yl)amino)-3-(2,2,2-trifluoroethyl)benzo[b]thiophen-2-yl)prop-2-yn-1-yl)amino)-3-methoxyphenyl)dimethylphosphine oxide]
[1]
  EC50: 53 nM
NUGC3 (P53 Y220C); [3]
  IC50: 0.87 µM
NUGC4 (P53 WT); [4]
  IC50: 2.26 µM
[2]; [9]
  EC50: 0.1 µM

## CN1CCC(Nc2cccc3c(CC(F)(F)F)c(C#CCNc4ccc(P(C)(C)=O)cc4OC(F)F)sc23)C(F)C1 (stereo not shown) [Example 64, (3-(difluoromethoxy)-4-((3-(7-(((Z)-3-fluoro-1-methylpiperidin-4-yl)amino)-3-(2,2,2-trifluoroethyl)benzo[b]thiophen-2-yl)prop-2-yn-1-yl)amino)phenyl)dimethylphosphine oxide]
[1]
  EC50: 44 nM
NUGC3 (P53 Y220C); [6]
  IC50: 0.98 µM
NUGC4 (P53 WT); [7]
  IC50: 13.6 µM
[2]; [8]
  EC50: 0.15 µM

## COc1cc(P(C)(C)=O)ccc1NCC#Cc1sc2c(NC3CC4CN(C)CC4C3)cccc2c1CC(F)(F)F (stereo not shown) [Example 182]
[1]
  EC50: 58 nM
NUGC3 (P53 Y220C); [3]
  IC50: 2.03 µM
NUGC4 (P53 WT); [4]
  IC50: 3.74 µM
[2]; [5]
  EC50: 0.48 µM

## CP(C)(=O)c1ccc(NCC#Cc2sc3c(N[C@@H]4CCN(C5CCOCC5)C[C@@H]4F)cccc3c2CC(F)(F)F)c(OC2CC2)c1 [Example 161, (3-cyclopropoxy-4-((3-(7-(((3S,4R)-3-fluoro-1-(tetrahydro-2H-pyran-4-yl)piperidin-4-yl)amino)-3-(2,2,2-trifluoroethyl)benzo[b]thiophen-2-yl)prop-2-yn-1-yl)amino)phenyl)dimethylphosphine oxide]
[1]
  EC50: 73 nM
NUGC3 (P53 Y220C); [3]
  IC50: 1.15 µM
NUGC4 (P53 WT); [4]
  IC50: 12.9 µM
[2]; [5]
  EC50: 0.12 µM

## COc1cc(P(C)(C)=O)ccc1NCC#Cc1sc2c(NC3C(C)CN(C)CC3C)cccc2c1CC(F)(F)F (stereo not shown) [Example 132, (3-methoxy-4-((3-(3-(2,2,2-trifluoroethyl)-7-(((E)-1,3,5-trimethylpiperidin-4-yl)amino)benzo[b]thiophen-2-yl)prop-2-yn-1-yl)amino)phenyl)dimethylphosphine oxide]
[1]
  EC50: 59 nM
NUGC3 (P53 Y220C); [6]
  IC50: 0.82 µM
NUGC4 (P53 WT); [7]
  IC50: 3.08 µM
[2]; [8]
  EC50: 0.26 µM

## CN1CC[C@@H](Nc2cccc3c(CC(F)(F)F)c(C#CCNC(=O)c4ccn(C(C)(C)C)c4)sc23)[C@@H](F)C1 (racemic) [Example 130, 1-tert-butyl-N-[3-[7-[((Z)-3-fluoro-1-methyl-4-piperidyl)amino]-3-(2,2,2-trifluoroethyl)benzothiophen-2-yl]prop-2-ynyl]pyrrole-3-carboxamide]
[1]
  EC50: 117 nM
NUGC3 (P53 Y220C); [3]
  IC50: 3.55 µM
NUGC4 (P53 WT); [4]
  IC50: 6.85 µM
[2]; [5]
  EC50: 0.36 µM

## CN1CC[C@@H](Nc2cccc3c(CC(F)(F)F)c(C#CCNc4ccc(P(C)(C)=O)cc4C(F)(F)F)sc23)[C@@H](F)C1 [Example 105, (4-((3-(7-(((3S,4R)-3-fluoro-1-methylpiperidin-4-yl)amino)-3-(2,2,2-trifluoroethyl)benzo[b]thiophen-2-yl)prop-2-yn-1-yl)amino)-3-(trifluoromethyl)phenyl)dimethylphosphine oxide]
[1]
  EC50: 35 nM
NUGC3 (P53 Y220C); [3]
  IC50: 1.83 µM
NUGC4 (P53 WT); [4]
  IC50: 10 µM
[2]; [9]
  EC50: 0.2 µM

## COc1cc(P(C)(C)=O)c(F)cc1NCC#Cc1sc2c(NC3CCN(C)CC3F)cccc2c1CC(F)(F)F (stereo not shown) [Example 52, (2-fluoro-4-((3-(7-(((Z)-3-fluoro-1-methylpiperidin-4-yl)amino)-3-(2,2,2-trifluoroethyl)benzo[b]thiophen-2-yl)prop-2-yn-1-yl)amino)-5-methoxyphenyl)dimethylphosphine oxide]
[1]
  EC50: 55 nM
NUGC3 (P53 Y220C); [6]
  IC50: 0.75 µM
NUGC4 (P53 WT); [7]
  IC50: 4.58 µM
[2]; [8]
  EC50: 0.23 µM

## COc1cc(P(C)(C)=O)ccc1NCC#Cc1sc2c(NC3CC4(C3)CN(C)C4)cccc2c1CC(F)(F)F [Example 189, (3-methoxy-4-((3-(7-((2-methyl-2-azaspiro[3.3]heptan-6-yl)amino)-3-(2,2,2-trifluoroethyl)benzo[b]thiophen-2-yl)prop-2-yn-1-yl)amino)phenyl)dimethylphosphine oxide]
[1]
  EC50: 45 nM
NUGC3 (P53 Y220C); [3]
  IC50: 3.64 µM
NUGC4 (P53 WT); [4]
  IC50: 8.67 µM
[2]; [5]
  EC50: 0.7 µM

## COc1cc(P(C)(C)=O)ccc1NCC#Cc1sc2c(N[C@H]3CCN(C)C[C@@H]3C)cccc2c1CC(F)(F)F [Example 127, (4-((3-(7-(((3S,4S)-1,3-dimethylpiperidin-4-yl)amino)-3-(2,2,2-trifluoroethyl)benzo[b]thiophen-2-yl)prop-2-yn-1-yl)amino)-3-methoxyphenyl)dimethylphosphine oxide]
[1]
  EC50: 38 nM
NUGC3 (P53 Y220C); [3]
  IC50: 0.33 µM
NUGC4 (P53 WT); [4]
  IC50: 2.26 µM
[2]; [9]
  EC50: 0.1 µM

## CN1CCC(Nc2cccc3c(CC(F)(F)F)c(C#CCNc4ccc(P(C)(C)=O)c5c4OCC5)sc23)C(F)C1 (stereo not shown) [Example 152, (7-((3-(7-(((Z)-3-fluoro-1-methylpiperidin-4-yl)amino)-3-(2,2,2-trifluoroethyl)benzo[b]thiophen-2-yl)prop-2-yn-1-yl)amino)-2,3-dihydrobenzofuran-4-yl)dimethylphosphine oxide]
[1]
  EC50: 19 nM
NUGC3 (P53 Y220C); [6]
  IC50: 1.02 µM
NUGC4 (P53 WT); [7]
  IC50: 6.69 µM
[2]; [8]
  EC50: 0.12 µM
